From ChEMBL document CHEMBL5291721, “A preclinical secondary pharmacology resource illuminates target-adverse drug reaction associations of marketed drugs” (Nat Commun, 2023)

How the values were obtained:
[1] = target: T1, Corticotropin-releasing factor receptor 1 (Homo sapiens, UniProt P34998)
T1 sequence (P34998 whole entry): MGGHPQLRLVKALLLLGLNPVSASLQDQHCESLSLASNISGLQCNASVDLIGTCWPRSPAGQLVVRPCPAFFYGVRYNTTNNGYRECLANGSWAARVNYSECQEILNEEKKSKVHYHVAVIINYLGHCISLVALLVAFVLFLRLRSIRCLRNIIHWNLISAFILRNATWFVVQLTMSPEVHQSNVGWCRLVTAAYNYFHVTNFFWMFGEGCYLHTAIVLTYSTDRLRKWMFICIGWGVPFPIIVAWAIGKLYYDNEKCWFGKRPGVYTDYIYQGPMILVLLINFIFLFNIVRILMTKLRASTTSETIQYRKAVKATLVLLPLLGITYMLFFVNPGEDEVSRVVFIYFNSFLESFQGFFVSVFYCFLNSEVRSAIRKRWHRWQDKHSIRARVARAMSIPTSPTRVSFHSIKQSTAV

[2] = target: Sodium channel protein type 5 subunit alpha (Homo sapiens, UniProt Q14524); format: functional, cell-based
Histamine H2 receptor = Histamine H2 receptor (Homo sapiens, UniProt P25021)
[3] = target: Voltage-dependent N-type calcium channel subunit alpha-1B (Rattus norvegicus, UniProt Q02294); format: functional
[4] = target: T2, Gastric inhibitory polypeptide receptor (Homo sapiens, UniProt P48546)
T2 sequence (P48546 whole entry): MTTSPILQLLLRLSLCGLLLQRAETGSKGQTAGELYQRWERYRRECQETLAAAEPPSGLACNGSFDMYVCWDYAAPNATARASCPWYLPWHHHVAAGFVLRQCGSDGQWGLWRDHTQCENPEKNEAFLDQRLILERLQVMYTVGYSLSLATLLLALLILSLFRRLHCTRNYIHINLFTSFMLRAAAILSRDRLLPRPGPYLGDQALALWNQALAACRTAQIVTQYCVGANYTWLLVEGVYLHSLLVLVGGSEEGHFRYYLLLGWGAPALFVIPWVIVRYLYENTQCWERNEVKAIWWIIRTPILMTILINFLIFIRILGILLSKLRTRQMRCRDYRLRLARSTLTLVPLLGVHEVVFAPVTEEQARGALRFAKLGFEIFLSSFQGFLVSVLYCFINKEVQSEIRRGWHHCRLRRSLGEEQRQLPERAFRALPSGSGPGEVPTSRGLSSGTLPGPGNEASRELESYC

Substance-P receptor = Substance-P receptor (Homo sapiens, UniProt P25103)
[5] = target: Neurotensin receptor type 1 (Homo sapiens, UniProt P30989)
[6] = target: T3, 5-hydroxytryptamine receptor 1A (Homo sapiens, UniProt P08908)
T3 sequence (P08908 whole entry): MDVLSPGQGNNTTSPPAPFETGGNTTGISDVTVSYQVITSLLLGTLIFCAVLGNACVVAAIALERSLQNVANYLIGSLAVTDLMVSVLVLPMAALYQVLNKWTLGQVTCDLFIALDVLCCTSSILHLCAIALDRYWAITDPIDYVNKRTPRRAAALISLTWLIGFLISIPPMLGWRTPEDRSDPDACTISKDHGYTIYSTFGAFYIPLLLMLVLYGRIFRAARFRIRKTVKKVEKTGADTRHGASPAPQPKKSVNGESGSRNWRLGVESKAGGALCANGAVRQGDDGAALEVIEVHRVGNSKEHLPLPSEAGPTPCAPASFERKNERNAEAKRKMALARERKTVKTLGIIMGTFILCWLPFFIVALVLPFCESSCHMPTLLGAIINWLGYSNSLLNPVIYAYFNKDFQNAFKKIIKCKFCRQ

[7] = target: T4, Alpha-2A adrenergic receptor (Homo sapiens, UniProt P08913)
T4 sequence (P08913 whole entry): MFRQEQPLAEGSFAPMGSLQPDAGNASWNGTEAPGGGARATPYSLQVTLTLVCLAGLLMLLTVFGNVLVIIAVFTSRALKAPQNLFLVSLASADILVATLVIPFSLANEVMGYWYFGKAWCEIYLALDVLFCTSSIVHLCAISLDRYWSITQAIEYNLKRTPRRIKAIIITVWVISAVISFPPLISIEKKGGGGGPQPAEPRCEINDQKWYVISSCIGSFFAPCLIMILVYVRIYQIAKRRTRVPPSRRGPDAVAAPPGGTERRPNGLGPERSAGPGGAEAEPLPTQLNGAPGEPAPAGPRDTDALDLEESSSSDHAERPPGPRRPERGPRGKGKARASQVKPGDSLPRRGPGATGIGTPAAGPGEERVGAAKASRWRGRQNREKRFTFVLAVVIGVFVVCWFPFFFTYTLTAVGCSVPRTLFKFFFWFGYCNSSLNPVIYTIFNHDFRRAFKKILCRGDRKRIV

[8] = target: T5, Muscarinic acetylcholine receptor M2 (Homo sapiens, UniProt P08172)
T5 sequence (P08172 whole entry): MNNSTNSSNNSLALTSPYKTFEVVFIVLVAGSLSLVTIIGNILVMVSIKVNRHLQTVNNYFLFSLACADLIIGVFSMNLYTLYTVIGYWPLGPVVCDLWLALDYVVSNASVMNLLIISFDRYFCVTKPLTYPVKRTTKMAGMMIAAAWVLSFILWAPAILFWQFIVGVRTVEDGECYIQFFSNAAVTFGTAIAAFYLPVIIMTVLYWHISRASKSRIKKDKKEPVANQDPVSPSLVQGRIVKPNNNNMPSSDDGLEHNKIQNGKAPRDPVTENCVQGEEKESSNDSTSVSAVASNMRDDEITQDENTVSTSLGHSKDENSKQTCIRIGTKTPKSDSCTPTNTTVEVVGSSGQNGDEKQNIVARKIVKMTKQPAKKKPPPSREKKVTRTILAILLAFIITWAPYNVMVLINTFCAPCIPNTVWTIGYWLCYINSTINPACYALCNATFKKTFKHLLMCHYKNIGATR

[9] = target: Beta-3 adrenergic receptor (Homo sapiens, UniProt P13945)
[10] = target: Synaptic vesicular amine transporter (Rattus norvegicus, UniProt Q01827); format: functional
[11] = target: Gamma-aminobutyric acid receptor subunit alpha-1/alpha-2/beta-2/gamma-2 (Homo sapiens, UniProt P14867+P18507+P47869+P47870); format: functional, cell-based
Further: assay procedure not described here.

Sequence of Histamine H2 receptor (P25021 whole entry): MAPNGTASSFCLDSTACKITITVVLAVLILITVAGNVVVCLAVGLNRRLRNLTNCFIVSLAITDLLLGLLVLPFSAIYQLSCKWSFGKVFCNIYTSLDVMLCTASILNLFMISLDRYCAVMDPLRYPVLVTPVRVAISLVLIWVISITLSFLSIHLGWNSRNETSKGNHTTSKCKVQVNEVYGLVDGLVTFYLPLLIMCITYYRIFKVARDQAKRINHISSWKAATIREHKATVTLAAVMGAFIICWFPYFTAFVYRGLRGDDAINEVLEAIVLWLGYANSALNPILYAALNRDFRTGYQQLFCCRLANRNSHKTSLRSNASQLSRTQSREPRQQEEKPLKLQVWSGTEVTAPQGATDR
Sequence of Voltage-dependent N-type calcium channel subunit alpha-1B (Q02294 whole entry): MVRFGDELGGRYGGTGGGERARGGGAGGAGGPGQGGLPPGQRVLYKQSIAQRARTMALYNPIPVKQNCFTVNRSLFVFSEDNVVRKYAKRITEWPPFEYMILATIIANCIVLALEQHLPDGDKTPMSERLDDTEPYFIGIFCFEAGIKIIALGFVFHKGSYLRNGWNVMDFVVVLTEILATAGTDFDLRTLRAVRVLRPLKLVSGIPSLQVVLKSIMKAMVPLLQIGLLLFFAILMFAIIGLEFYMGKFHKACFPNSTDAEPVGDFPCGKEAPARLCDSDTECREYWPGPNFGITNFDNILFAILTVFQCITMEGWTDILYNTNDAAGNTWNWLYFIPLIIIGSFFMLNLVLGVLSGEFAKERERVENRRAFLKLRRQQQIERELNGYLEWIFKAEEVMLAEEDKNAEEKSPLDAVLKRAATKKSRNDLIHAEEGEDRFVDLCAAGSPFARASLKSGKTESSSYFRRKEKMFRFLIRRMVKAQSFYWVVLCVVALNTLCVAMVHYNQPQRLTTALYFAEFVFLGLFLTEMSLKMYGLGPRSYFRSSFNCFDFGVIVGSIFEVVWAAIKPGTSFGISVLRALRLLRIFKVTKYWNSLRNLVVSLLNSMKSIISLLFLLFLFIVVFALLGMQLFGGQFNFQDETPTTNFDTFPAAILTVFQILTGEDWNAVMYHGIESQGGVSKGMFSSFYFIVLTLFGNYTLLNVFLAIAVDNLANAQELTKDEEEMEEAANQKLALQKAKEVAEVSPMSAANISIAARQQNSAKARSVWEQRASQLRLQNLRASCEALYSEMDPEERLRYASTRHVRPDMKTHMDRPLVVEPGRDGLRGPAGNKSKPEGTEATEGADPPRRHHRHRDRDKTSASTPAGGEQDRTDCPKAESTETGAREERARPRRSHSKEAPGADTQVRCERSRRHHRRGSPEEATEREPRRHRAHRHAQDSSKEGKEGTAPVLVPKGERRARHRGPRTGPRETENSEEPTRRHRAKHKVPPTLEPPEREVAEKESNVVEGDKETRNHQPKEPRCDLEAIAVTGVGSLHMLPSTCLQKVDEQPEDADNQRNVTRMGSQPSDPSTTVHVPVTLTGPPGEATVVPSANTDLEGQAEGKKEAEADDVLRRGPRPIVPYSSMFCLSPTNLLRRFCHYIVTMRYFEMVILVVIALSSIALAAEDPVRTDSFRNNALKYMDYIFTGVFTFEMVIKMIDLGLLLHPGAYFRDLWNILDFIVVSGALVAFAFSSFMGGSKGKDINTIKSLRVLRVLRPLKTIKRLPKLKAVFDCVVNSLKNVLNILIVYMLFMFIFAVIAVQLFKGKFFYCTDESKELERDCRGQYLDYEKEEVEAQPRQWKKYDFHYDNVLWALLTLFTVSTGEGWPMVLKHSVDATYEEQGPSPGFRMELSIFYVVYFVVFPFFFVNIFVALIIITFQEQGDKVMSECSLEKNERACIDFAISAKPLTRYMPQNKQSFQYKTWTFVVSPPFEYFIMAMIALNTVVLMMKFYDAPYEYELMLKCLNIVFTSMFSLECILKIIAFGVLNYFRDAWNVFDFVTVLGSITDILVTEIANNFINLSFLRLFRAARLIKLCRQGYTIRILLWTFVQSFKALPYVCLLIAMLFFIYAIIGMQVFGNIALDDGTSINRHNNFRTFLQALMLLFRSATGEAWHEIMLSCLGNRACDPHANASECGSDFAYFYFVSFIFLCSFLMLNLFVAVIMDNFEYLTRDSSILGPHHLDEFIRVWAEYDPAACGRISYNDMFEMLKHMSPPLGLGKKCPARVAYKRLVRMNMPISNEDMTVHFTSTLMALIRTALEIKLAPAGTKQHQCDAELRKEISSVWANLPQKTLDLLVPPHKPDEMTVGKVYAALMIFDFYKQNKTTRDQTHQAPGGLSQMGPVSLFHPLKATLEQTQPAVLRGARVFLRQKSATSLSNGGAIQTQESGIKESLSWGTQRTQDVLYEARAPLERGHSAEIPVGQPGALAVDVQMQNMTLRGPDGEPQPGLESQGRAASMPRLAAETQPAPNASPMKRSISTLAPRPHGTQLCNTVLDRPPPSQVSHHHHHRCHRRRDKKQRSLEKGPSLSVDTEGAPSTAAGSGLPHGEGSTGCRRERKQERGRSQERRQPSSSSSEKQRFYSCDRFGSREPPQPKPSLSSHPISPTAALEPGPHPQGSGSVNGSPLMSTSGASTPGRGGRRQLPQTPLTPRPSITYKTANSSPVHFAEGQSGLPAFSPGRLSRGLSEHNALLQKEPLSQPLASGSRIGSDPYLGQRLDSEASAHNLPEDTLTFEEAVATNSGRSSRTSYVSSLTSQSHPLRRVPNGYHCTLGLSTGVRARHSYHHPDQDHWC
Sequence of Sodium channel protein type 5 subunit alpha (Q14524 whole entry): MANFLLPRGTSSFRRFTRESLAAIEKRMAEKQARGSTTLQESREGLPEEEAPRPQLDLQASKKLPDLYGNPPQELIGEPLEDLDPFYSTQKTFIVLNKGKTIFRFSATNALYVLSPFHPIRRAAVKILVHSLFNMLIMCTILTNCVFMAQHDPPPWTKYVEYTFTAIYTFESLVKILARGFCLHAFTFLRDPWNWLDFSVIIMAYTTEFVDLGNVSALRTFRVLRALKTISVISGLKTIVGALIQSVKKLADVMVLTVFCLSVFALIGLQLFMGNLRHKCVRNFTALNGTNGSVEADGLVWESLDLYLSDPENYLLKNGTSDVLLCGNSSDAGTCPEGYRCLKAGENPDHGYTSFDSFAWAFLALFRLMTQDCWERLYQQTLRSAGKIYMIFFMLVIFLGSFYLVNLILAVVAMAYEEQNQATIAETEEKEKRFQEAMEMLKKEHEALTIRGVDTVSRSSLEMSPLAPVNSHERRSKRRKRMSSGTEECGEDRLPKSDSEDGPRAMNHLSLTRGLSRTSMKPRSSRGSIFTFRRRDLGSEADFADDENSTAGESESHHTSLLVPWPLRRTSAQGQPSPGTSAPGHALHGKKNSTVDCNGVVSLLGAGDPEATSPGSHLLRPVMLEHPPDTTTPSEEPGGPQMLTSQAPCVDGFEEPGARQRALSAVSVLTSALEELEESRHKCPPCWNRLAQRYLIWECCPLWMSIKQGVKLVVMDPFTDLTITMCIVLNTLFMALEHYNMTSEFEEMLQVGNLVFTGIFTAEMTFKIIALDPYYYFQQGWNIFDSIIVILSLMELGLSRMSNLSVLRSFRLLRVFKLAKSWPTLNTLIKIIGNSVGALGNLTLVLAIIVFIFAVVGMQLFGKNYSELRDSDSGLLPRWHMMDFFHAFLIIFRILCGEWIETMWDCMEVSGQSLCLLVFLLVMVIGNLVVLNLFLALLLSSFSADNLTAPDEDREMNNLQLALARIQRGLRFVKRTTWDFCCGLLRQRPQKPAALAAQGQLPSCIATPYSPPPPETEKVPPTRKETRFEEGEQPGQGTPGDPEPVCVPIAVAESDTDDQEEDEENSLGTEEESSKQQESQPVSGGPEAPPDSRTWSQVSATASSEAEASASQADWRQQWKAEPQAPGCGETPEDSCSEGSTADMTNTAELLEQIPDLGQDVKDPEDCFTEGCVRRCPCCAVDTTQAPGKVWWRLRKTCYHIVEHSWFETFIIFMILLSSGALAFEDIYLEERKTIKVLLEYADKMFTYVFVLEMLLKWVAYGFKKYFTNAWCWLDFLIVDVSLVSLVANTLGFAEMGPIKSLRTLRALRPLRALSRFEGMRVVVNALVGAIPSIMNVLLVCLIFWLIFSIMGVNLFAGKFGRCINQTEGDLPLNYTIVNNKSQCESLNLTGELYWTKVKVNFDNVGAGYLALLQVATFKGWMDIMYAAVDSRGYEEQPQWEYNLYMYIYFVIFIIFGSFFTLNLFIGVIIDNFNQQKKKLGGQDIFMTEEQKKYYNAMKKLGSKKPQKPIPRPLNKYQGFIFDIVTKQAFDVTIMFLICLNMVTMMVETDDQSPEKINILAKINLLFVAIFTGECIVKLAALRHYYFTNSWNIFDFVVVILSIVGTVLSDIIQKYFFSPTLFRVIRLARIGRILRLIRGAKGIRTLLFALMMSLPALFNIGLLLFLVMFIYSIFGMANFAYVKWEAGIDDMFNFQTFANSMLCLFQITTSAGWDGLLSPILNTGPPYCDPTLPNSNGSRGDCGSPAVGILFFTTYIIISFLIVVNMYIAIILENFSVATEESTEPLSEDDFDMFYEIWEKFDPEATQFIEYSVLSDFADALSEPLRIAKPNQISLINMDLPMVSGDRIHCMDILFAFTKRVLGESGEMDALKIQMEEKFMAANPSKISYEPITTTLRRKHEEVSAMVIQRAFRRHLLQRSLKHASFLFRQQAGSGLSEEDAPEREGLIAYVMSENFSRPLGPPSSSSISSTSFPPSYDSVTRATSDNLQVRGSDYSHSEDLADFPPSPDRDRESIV
Sequence of Neurotensin receptor type 1 (P30989 whole entry): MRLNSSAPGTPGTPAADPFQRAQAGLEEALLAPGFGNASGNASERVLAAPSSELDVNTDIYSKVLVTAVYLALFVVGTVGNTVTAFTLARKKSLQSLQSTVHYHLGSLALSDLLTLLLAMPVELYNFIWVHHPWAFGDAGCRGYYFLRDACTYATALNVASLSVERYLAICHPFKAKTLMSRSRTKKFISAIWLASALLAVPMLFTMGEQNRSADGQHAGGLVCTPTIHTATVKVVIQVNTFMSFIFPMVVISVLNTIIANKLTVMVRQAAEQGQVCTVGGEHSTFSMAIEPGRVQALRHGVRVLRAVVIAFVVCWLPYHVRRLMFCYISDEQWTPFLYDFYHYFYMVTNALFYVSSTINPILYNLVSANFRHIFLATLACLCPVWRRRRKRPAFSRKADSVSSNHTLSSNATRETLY

SMILES: CCOC(=O)[C@H](CCc1ccccc1)N[C@@H](C)C(=O)N1CCC[C@H]1C(=O)O
- AC50 [1]: > 30 µM
- AC50 [2]: > 30 µM
- AC50 (Histamine H2 receptor): > 10 µM
- AC50 [3]: > 10 µM
- AC50 [4]: > 30 µM
- AC50 (Substance-P receptor): > 10 µM
- AC50 [5]: > 30 µM
- AC50 [6]: > 10 µM
- AC50 [7]: > 10 µM
- AC50 [8]: > 10 µM
- AC50 [9]: > 30 µM

SMILES: O=C1c2c(O)c(=O)ccn2N([C@@H]2c3ccccc3SCc3c2ccc(F)c3F)[C@@H]2COCCN12 [BALOXAVIR]
- AC50 [2]: > 50 µM
- AC50 [10]: 22 µM

SMILES: CC(C)NCC(O)COc1ccc(COCCOC(C)C)cc1 (centres undefined) [BISOPROLOL]
- AC50 [1]: > 30 µM
- AC50 [2]: > 30 µM
- AC50 (Histamine H2 receptor): > 10 µM
- AC50 [3]: > 10 µM
- AC50 [4]: > 30 µM
- AC50 (Substance-P receptor): > 10 µM
- AC50 [5]: > 30 µM
- AC50 [6]: > 10 µM
- AC50 [7]: > 10 µM
- AC50 [8]: > 10 µM

SMILES: CCC[C@@H]1C[C@@H](C(=O)N[C@@H]([C@H]2O[C@H](SC)[C@H](O)[C@@H](O)[C@H]2O)[C@H](C)Cl)N(C)C1 [CLINDAMYCIN]
- AC50 [1]: > 30 µM
- AC50 (Histamine H2 receptor): > 10 µM
- AC50 [3]: > 10 µM
- AC50 [4]: > 30 µM
- AC50 (Substance-P receptor): > 10 µM
- AC50 [5]: > 30 µM
- AC50 [6]: > 10 µM
- AC50 [7]: > 10 µM
- AC50 [10]: > 30 µM
- AC50 [8]: > 10 µM
- AC50 [9]: > 30 µM

SMILES: CN(CCOc1ccc(NS(C)(=O)=O)cc1)CCc1ccc(NS(C)(=O)=O)cc1 [DOFETILIDE]
- AC50 [1]: > 30 µM
- AC50 (Histamine H2 receptor): > 10 µM
- AC50 [3]: > 10 µM
- AC50 [4]: > 30 µM
- AC50 (Substance-P receptor): > 10 µM
- AC50 [5]: > 30 µM
- AC50 [6]: > 10 µM
- AC50 [7]: > 10 µM
- AC50 [10]: 1.7 µM
- AC50 [8]: > 10 µM
- AC50 [9]: > 30 µM

SMILES: C#C[C@]1(O)CC[C@H]2[C@@H]3CCc4cc(O)ccc4[C@H]3CC[C@@]21C [ETHINYL ESTRADIOL]
- AC50 [1]: > 30 µM
- AC50 [2]: > 30 µM
- AC50 (Histamine H2 receptor): > 10 µM
- AC50 [3]: > 10 µM
- AC50 [4]: > 30 µM
- AC50 (Substance-P receptor): > 10 µM
- AC50 [5]: > 30 µM
- AC50 [6]: > 10 µM
- AC50 [7]: > 10 µM
- AC50 [8]: > 10 µM
- AC50 [9]: 35.4 µM

SMILES: CCOC(=O)c1ccc(O)cc1 [ETHYLPARABEN]
- AC50 [10]: 22 µM

SMILES: O=C(COc1ccc(Cl)cc1)N1CCN(Cc2ccc3c(c2)OCO3)CC1 [FIPEXIDE]
- AC50 [2]: > 50 µM
- AC50 [10]: 0.15 µM

SMILES: OC[C@@H](O)[C@@H](O)[C@H](O)[C@H](O)CO [MANNITOL]
- AC50 [10]: > 30 µM

SMILES: CN1C(=O)CC(C)(c2ccccc2)C1=O (centres undefined) [METHSUXIMIDE]
- AC50 [10]: > 30 µM

SMILES: CC(O)CO (centres undefined) [PROPYLENE GLYCOL]
- AC50 [10]: > 30 µM

SMILES: O=C(NC[C@H]1CN(c2ccc(N3CCOCC3=O)cc2)C(=O)O1)c1ccc(Cl)s1 [RIVAROXABAN]
- AC50 [2]: > 50 µM
- AC50 [11]: > 30 µM

SMILES: CC(C)OC(=O)[C@H](C)N[P@](=O)(OC[C@H]1O[C@@H](n2ccc(=O)[nH]c2=O)[C@](C)(F)[C@@H]1O)Oc1ccccc1 [SOFOSBUVIR]
- AC50 [2]: > 50 µM
- AC50 [10]: > 30 µM

SMILES: CS(=O)(=O)c1ccc([C@@H](O)[C@@H](CO)NC(=O)C(Cl)Cl)cc1 [THIAMPHENICOL]
- AC50 [2]: > 50 µM
- AC50 [10]: > 30 µM

SMILES: CC(=O)OC[C@H]1O[C@@H](n2ccc(=O)[nH]c2=O)[C@H](OC(C)=O)[C@@H]1OC(C)=O [URIDINE TRIACETATE]
- AC50 [10]: > 30 µM

SMILES: CCCS(=O)(=O)Nc1ccc(F)c(C(=O)c2c[nH]c3ncc(-c4ccc(Cl)cc4)cc23)c1F [VEMURAFENIB]
- AC50 [2]: > 30 µM

SMILES: OCc1cc([C@@H](O)CNCCCCCCOCCOCc2c(Cl)cccc2Cl)ccc1O [VILANTEROL]
- AC50 [2]: 5 µM
- AC50 [11]: > 30 µM

SMILES: CCOC(=O)N[C@@H]1CC[C@@H]2[C@@H](C1)C[C@H]1C(=O)O[C@H](C)[C@H]1[C@H]2/C=C/c1ccc(-c2cccc(F)c2)cn1 [VORAPAXAR]
- AC50 [2]: > 50 µM
- AC50 [10]: 1.3 µM
